# Measured values from patent publication US20240150342A1, “ESTROGEN-RELATED RECEPTOR ALPHA MODULATORS” (LEAD PHARMA HOLDING B.V., priority 2019, published 2024).
# Target: T1, ERRα ligand binding domain (ERRα-LBD) (Homo sapiens, UniProt P11474)
# T1 construct: made in house; host or cells: E. coli
# T1 sequence (P11474 193-421 limits assumed): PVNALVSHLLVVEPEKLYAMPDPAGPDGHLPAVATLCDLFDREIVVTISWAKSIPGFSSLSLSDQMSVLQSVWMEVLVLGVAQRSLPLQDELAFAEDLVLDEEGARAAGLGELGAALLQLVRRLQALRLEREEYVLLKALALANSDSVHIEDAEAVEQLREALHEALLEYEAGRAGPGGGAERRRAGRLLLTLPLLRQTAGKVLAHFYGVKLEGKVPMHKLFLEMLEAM
# Assay: ERRα AlphaScreen Assay
# Assay type: biochemical
# Details: disruption of binding of ERRα-LBD protein to biotin-PGC1α-3 co-activator peptide; read-out: mean pIC50 (converted)
# Excerpt: This assay was based on the knowledge that nuclear receptors interact with cofactors in a ligand dependent matter. The sites of interaction have been mapped to LXXLL motifs that are present in the co-activator sequences. Short peptide sequences that contain the LXXLL motif mimic the behavior of full length co-activators.
# The ERRα AlphaScreen Assay described here relies on the interaction of the co-activator peptide with purified bacterial- expressed ERRα ligand binding domain (ERRα-LBD); upon ligand binding, the ERRα protein can undergo a conformational change resulting in a loss of co-activator binding.
# Compounds of the present invention were tested for their ability to disrupt binding of ERRα-LBD protein to co-activator peptide using AlphaScreen® Technology (Perkin Elmer). ERRα-LBD protein was expressed in E. coli as a 6×His Small Ubiquitin-like Modifier (SUMO) fusion. Bacterial expressed 6His-SUMO-ERRα-LBD protein was purified using affinity chromatography. All experiments were performed at room temperature in 384-well white non-binding plates (Greiner) using 50 mM Tris-HCl pH 7.5, 100 mM NaCl, 0.1% Pluronic F-127, 0.05% BSA and 5 mM TCEP as the buffer. Final DMSO concentration was 1% in the assay. Compounds were assayed in triplicate and: incubated with 0.81 nM ERRα-LBD protein and 10 μg/mL streptavidin donor beads and 10 μg/mL Ni-chelate acceptor beads for 1 hour at room temperature; followed by a 2-hour incubation with 15 nM biotin-PGC1α-3 peptide (QRRPCSELLKYLTTNDDPP) corresponding to amino acids 202 to 220.
# The AlphaScreen signal was measured using an Envision Xcite plate reader (Perkin Elmer). Data was normalized, and curve fitting analysis was performed in GraphPad Prism 7 using a four-parameter dose-response fit.
row,IC50 [nM],Compound
1,100 to 1000,"COc1cc(C2CC(=O)Nc3n[nH]cc32)ccc1Oc1cc(C(F)(F)F)cc(C(F)(F)F)c1 (single isomer, unassigned; (+)) [Example 79, (+)-4-{4-[3,5-bis(trifluoromethyl)phenoxy]-3-methoxyphenyl}-2H,4H,5H,6H,7H-pyrazolo[3,4-b]pyridin-6-one]"
2,100 to 1000,"COc1cc(C2CC(=O)Nc3n[nH]cc32)ccc1Oc1cc(C)cc(C)c1 (single isomer, unassigned; (+)) [Example 81, (+)-4-[4-(3,5-dimethylphenoxy)-3-methoxyphenyl]-2H,4H,5H,6H,7H-pyrazolo[3,4-b]pyridin-6-one]"
3,100 to 1000,"COc1cc(C2CC(=O)Nc3n[nH]cc32)ccc1Oc1cc(C)cc(C(F)(F)F)c1 (single isomer, unassigned; (+)) [Example 83, (+)-4-{3-methoxy-4-[3-methyl-5-(trifluoromethyl)phenoxy]phenyl}-2H,4H,5H,6H,7H-pyrazolo[3,4-b]pyridin-6-one]"
4,100 to 1000,"COc1cc(C2CC(=O)Nc3n[nH]cc32)ccc1Oc1cc(C(F)F)cc(C(F)(F)F)c1 (single isomer, unassigned; (+)) [Example 85, (+)-4-{4-[3-(difluoromethyl)-5-(trifluoromethyl)phenoxy]-3-methoxyphenyl}-2H,4H,5H,6H,7H-pyrazolo[3,4-b]pyridin-6-one]"
5,10 to 100,"COc1cc(C2CC(=O)Nc3n[nH]cc32)ccc1Oc1cc(C)cc(C)c1 (single isomer, unassigned; (-)) [Example 82, (−)-4-[4-(3,5-dimethylphenoxy)-3-methoxyphenyl]-2H,4H,5H,6H,7H-pyrazolo[3,4-b]pyridin-6-one]"
6,100 to 1000,"COc1cc(C2CC(=O)Nc3n[nH]cc32)ccc1Oc1cccc(C)c1 (centres unmarked) [Example 1, 4-[3-methoxy-4-(3-methylphenoxy)phenyl]-2H,4H,5H,6H, 7H-pyrazolo[3,4-b]pyridin-6-one]"
7,100 to 1000,"COc1cc(C2CC(=O)Nc3n[nH]cc32)ccc1Oc1ccc(C#N)cc1C(F)(F)F (centres unmarked) [Example 2, 4-(2-methoxy-4-{6-oxo-2H,4H,5H,6H,7H-pyrazolo[3,4-b]pyridin-4-yl}phenoxy)-3-(trifluoromethyl)benzonitrile]"
8,100 to 1000,"COc1cc(C2CC(=O)Nc3n[nH]cc32)ccc1Oc1ccccc1C(F)(F)F (centres unmarked) [Example 4, 4-{3-methoxy-4-[2-(trifluoromethyl)phenoxy]phenyl}-2H,4H,5H,6H,7H-pyrazolo[3,4-b]pyridin-6-one]"
9,100 to 1000,"COc1cc(C2CC(=O)Nc3n[nH]cc32)ccc1Oc1ccc(C(F)(F)F)cc1 (centres unmarked) [Example 5, 4-{3-methoxy-4-[4-(trifluoromethyl)phenoxy]phenyl}-2H,4H,5H,6H,7H-pyrazolo[3,4-b]pyridin-6-one]"
10,100 to 1000,"COc1cc(C2CC(=O)Nc3n[nH]cc32)ccc1Oc1cccc(C(F)(F)F)c1 (centres unmarked) [Example 6, 4-{3-methoxy-4-[3-(trifluoromethyl)phenoxy]phenyl}-2H,4H,5H,6H,7H-pyrazolo[3,4-b]pyridin-6-one]"
11,100 to 1000,"COc1cc(C2CC(=O)Nc3n[nH]cc32)ccc1Oc1ccccc1Br (centres unmarked) [Example 7, 4-[4-(2-bromophenoxy)-3-methoxyphenyl]-2H,4H,5H,6H,7H-pyrazolo[3,4-b]pyridin-6-one]"
12,10 to 100,"COc1cc(C2CC(=O)Nc3n[nH]cc32)ccc1Oc1ccccc1OC(F)(F)F (centres unmarked) [Example 12, 4-{3-methoxy-4-[2-(trifluoromethoxy)phenoxy]phenyl}-2H,4H,5H,6H,7H-pyrazolo[3,4-b]pyridin-6-one]"
13,100 to 1000,"COc1cc(C2CC(=O)Nc3n[nH]cc32)ccc1Oc1cccc(Br)c1 (centres unmarked) [Example 14, 4-[4-(3-bromophenoxy)-3-methoxyphenyl]-2H,4H,5H,6H,7H-pyrazolo[3,4-b]pyridin-6-one]"
14,10 to 100,"COc1cc(C2CC(=O)Nc3n[nH]cc32)ccc1Oc1cccc(C(C)(C)C)c1 (centres unmarked) [Example 15, 4-[4-(3-tert-butylphenoxy)-3-methoxyphenyl]-2H,4H,5H,6H,7H-pyrazolo[3,4-b]pyridin-6-one]"
15,100 to 1000,"COc1cc(C2CC(=O)Nc3n[nH]cc32)ccc1Oc1cccc(OC(F)(F)F)c1 (centres unmarked) [Example 17, 4-{3-methoxy-4-[3-(trifluoromethoxy)phenoxy]phenyl}-2H,4H,5H,6H,7H-pyrazolo[3,4-b]pyridin-6-one]"
16,100 to 1000,"CCc1ccccc1Oc1ccc(C2CC(=O)Nc3n[nH]cc32)cc1OC (centres unmarked) [Example 20, 4-[4-(2-ethylphenoxy)-3-methoxyphenyl]-2H,4H,5H,6H,7H-pyrazolo[3,4-b]pyridin-6-one]"

row,IC50 [nM],Compound
1,100 to 1000,"CCc1cccc(Oc2ccc(C3CC(=O)Nc4n[nH]cc43)cc2OC)c1 (centres unmarked) [Example 21, 4-[4-(3-ethylphenoxy)-3-methoxyphenyl]-2H,4H,5H,6H,7H-pyrazolo[3,4-b]pyridin-6-one]"
2,100 to 1000,"CCCc1ccccc1Oc1ccc(C2CC(=O)Nc3n[nH]cc32)cc1OC (centres unmarked) [Example 22, 4-[3-methoxy-4-(2-propylphenoxy)phenyl]-2H,4H,5H,6H,7H-pyrazolo[3,4-b]pyridin-6-one]"
3,10 to 100,"COc1cc(C2CC(=O)Nc3n[nH]cc32)ccc1Oc1ccccc1C(C)C (centres unmarked) [Example 23, 4-{3-methoxy-4-[2-(propan-2-yl)phenoxy]phenyl}-2H,4H,5H,6H,7H-pyrazolo[3,4-b]pyridin-6-one]"
4,100 to 1000,"COc1cc(C2CC(=O)Nc3n[nH]cc32)ccc1Oc1ccccc1-c1ccccc1 (centres unmarked) [Example 24, 4-[3-methoxy-4-(2-phenylphenoxy)phenyl]-2H,4H,5H,6H,7H-pyrazolo[3,4-b]pyridin-6-one]"
5,100 to 1000,"COc1cc(C2CC(=O)Nc3n[nH]cc32)ccc1Oc1ccccc1C1CCCC1 (centres unmarked) [Example 25, 4-[4-(2-cyclopentylphenoxy)-3-methoxyphenyl]-2H,4H,5H,6H,7H-pyrazolo[3,4-b]pyridin-6-one]"
6,100 to 1000,"COc1cc(C2CC(=O)Nc3n[nH]cc32)ccc1Oc1ccccc1Cc1ccccc1 (centres unmarked) [Example 26, 4-[4-(2-benzylphenoxy)-3-methoxyphenyl]-2H,4H,5H,6H,7H-pyrazolo[3,4-b]pyridin-6-one]"
7,≤ 10,"COc1ccc(Oc2ccc(C3CC(=O)Nc4n[nH]cc43)cc2OC)c(C(C)(C)C)c1 (centres unmarked) [Example 27, 4-[4-(2-tert-butyl-4-methoxyphenoxy)-3-methoxyphenyl]-2H,4H,5H,6H,7H-pyrazolo[3,4-b]pyridin-6-one]"
8,10 to 100,"COc1cc(C2CC(=O)Nc3n[nH]cc32)ccc1Oc1ccccc1C1CC1 (centres unmarked) [Example 28, 4-[4-(2-cyclopropylphenoxy)-3-methoxyphenyl]-2H,4H,5H,6H,7H-pyrazolo[3,4-b]pyridin-6-one]"
9,10 to 100,"COc1cc(C2CC(=O)Nc3n[nH]cc32)ccc1Oc1cccc(C(C)C)c1 (centres unmarked) [Example 30, 4-{3-methoxy-4-[3-(propan-2-yl)phenoxy]phenyl}-2H,4H,5H,6H,7H-pyrazolo[3,4-b]pyridin-6-one]"
10,10 to 100,"COc1cc(C2CC(=O)Nc3n[nH]cc32)ccc1Oc1cccc(C2CC2)c1 (centres unmarked) [Example 31, 4-[4-(3-cyclopropylphenoxy)-3-methoxyphenyl]-2H,4H,5H,6H,7H-pyrazolo[3,4-b]pyridin-6-one]"
11,≤ 10,"COC(=O)c1ccc(Oc2ccc(C3CC(=O)Nc4n[nH]cc43)cc2OC)c2ccccc12 (centres unmarked) [Example 36, methyl 4-(2-methoxy-4-{6-oxo-2H,4H,5H,6H,7H-pyrazolo[3,4-b]pyridin-4-yl}phenoxy)naphthalene-1-carboxylate]"
12,10 to 100,"COc1cc(C2CC(=O)Nc3n[nH]cc32)ccc1Oc1cc(Br)cc(C(F)(F)F)c1 (centres unmarked) [Example 42, 4-{4-[3-bromo-5-(trifluoromethyl)phenoxy]-3-methoxyphenyl}-2H,4H,5H,6H,7H-pyrazolo[3,4-b]pyridin-6-one]"
13,10 to 100,"COc1cc(C2CC(=O)Nc3n[nH]cc32)ccc1Oc1cc(C(C)(C)C)cc(C(C)(C)C)c1 (centres unmarked) [Example 44, 4-[4-(3,5-di-tert-butylphenoxy)-3-methoxyphenyl]-2H,4H,5H,6H,7H-pyrazolo[3,4-b]pyridin-6-one]"
14,10 to 100,"COc1cc(C2CC(=O)Nc3n[nH]cc32)ccc1Oc1ccccc1C12CC(C1)C2 (centres unmarked) [Example 45, 4-[4-(2-{bicyclo[1.1.1]pentan-1-yl}phenoxy)-3-methoxyphenyl]-2H,4H,5H,6H,7H-pyrazolo[3,4-b]pyridin-6-one]"
15,10 to 100,"COc1cc(C2CC(=O)Nc3n[nH]cc32)ccc1Oc1ccc(C#N)c2ccccc12 (centres unmarked) [Example 46, 4-(2-methoxy-4-{6-oxo-2H,4H,5H,6H,7H-pyrazolo[3,4-b]pyridin-4-yl}phenoxy)naphthalene-1-carbonitrile]"
16,10 to 100,"COc1cc(C2CC(=O)Nc3n[nH]cc32)ccc1Oc1cccc2c1CCC2 (centres unmarked) [Example 47, 4-[4-(2,3-dihydro-1H-inden-4-yloxy)-3-methoxyphenyl]-2H,4H,5H,6H,7H-pyrazolo[3,4-b]pyridin-6-one]"
